Laboratory results as given in ChEMBL document CHEMBL1641395, “Highly brominated antimicrobial metabolites from a marine Pseudoalteromonas sp” (J Nat Prod, 2010).

Test system: Staphylococcus aureus
Experiment: Antibacterial activity against methicillin-resistant Staphylococcus aureus ATCC 43300 after 12 hrs by Broth microdilution method
Format: functional, organism-based
Settings: ATCC 43300, 12 h

Row | Compound | IC50 [nM]
1 | Brc1cc(Br)c2oc3c(Br)c(Br)[nH]c3c2c1 | 1930
2 | Oc1ccc(Br)cc1-c1cc(Br)cc(Br)c1O | 2190
3 | Oc1c(Br)cc(Br)cc1-c1cc(Br)cc(Br)c1O [BROMOPHENE] | 2140
4 | Oc1c(Br)cc(Br)cc1-c1[nH]c(Br)c(Br)c1Br [PENTABROMOPSEUDILIN] | 100
5 | CN[C@H](CC(C)C)C(=O)N[C@H]1C(=O)N[C@@H](CC(N)=O)C(=O)N[C@H]2C(=O)N[C@H]3C(=O)N[C@H](C(=O)N[C@H](C(=O)O)c4cc(O)cc(O)c4-c4cc3ccc4O)[C@H](O)c3ccc(c(Cl)c3)Oc3cc2cc(c3O[C@@H]2O[C@H](CO)[C@@H](O)[C@H](O)[C@H]2O[C@H]2C[C@](C)(N)[C@H](O)[C@H](C)O2)Oc2ccc(cc2Cl)[C@H]1O [VANCOMYCIN] | 910
